PubChem BioAssay AID256 (DTP/NCI, 2004)
Inconclusive results and toxic doses are left out. How the source made its calls: active means survival T/C of 150% or more; inactive means T/C below 125% in these data.

System: CD2F1 mice, L1210 leukemia ip, survival T/C
Experiment: NCI In Vivo Anticancer Drug Screen. Data for tumor model L1210 Leukemia (intraperitoneal) in CD2F1 (CDF1) mice
Settings: higher = longer survival
Summary of the method: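 Tumor-bearing mice (transplanted tumor) were split into treated and vehicle control groups, and the measured endpoint of each treated group was divided by that of its vehicle controls.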

[1] = endpoint: mean survival time, dose: 50.0 mg/kg/injection, schedule: Q04DX002 (ip), vehicle: saline with Tween-80
[2] = endpoint: mean survival time, dose: 200.0 mg/kg/injection, schedule: Q01DX001 (ip), vehicle: saline with Tween-80
[3] = endpoint: mean survival time, dose: 400.0 mg/kg/injection, schedule: Q01DX001 (ip), vehicle: saline with Tween-80
[4] = endpoint: mean survival time, dose: 100.0 mg/kg/injection, schedule: Q04DX003 (ip), vehicle: saline with Tween-80
[5] = endpoint: mean survival time, dose: 200.0 mg/kg/injection, schedule: Q04DX003 (ip), vehicle: saline with Tween-80
[6] = endpoint: mean survival time, dose: 400.0 mg/kg/injection, schedule: Q04DX003 (ip), vehicle: saline with Tween-80
[7] = endpoint: mean survival time, dose: 100.0 mg/kg/injection, schedule: Q01DX009 (ip), vehicle: saline with Tween-80
[8] = endpoint: mean survival time, dose: 200.0 mg/kg/injection, schedule: Q01DX009 (ip), vehicle: saline with Tween-80

Measured: T/C

COC(=O)[C@H]1[C@H]2C[C@@H]3c4[nH]c5cc(OC)ccc5c4CCN3C[C@H]2C[C@@H](OC(=O)c2cc(OC)c(OC)c(OC)c2)[C@@H]1OC
inactive: endpoint: mean survival time, dose: 3.0 mg/kg/injection, schedule: Q01DX009 (ip), vehicle: saline with Tween-80 95 % of control | endpoint: mean survival time, dose: 6.0 mg/kg/injection, schedule: Q01DX009 (ip), vehicle: saline with Tween-80 94 % of control | endpoint: mean survival time, dose: 12.5 mg/kg/injection, schedule: Q04DX003 (ip), vehicle: saline with Tween-80 90 % of control | endpoint: mean survival time, dose: 50.0 mg/kg/injection, schedule: Q04DX003 (ip), vehicle: saline with Tween-80 89 % of control

C[N+](C)(Cc1ccccc1)c1ccccc1
inactive: endpoint: mean survival time, dose: 10.0 mg/kg/injection, schedule: Q01DX009 (ip), vehicle: saline 109 % of control | endpoint: mean survival time, dose: 20.0 mg/kg/injection, schedule: Q01DX009 (ip), vehicle: saline 94 % of control

[I][Pt+2][I].[NH-]c1ccc(F)cc1.[NH-]c1ccc(F)cc1
inactive: endpoint: mean survival time, dose: 3.13 mg/kg/injection, schedule: Q04DX003 (ip), vehicle: distilled water + Tween-80 108 % of control | endpoint: mean survival time, dose: 6.25 mg/kg/injection, schedule: Q04DX003 (ip), vehicle: distilled water + Tween-80 108 % of control | endpoint: mean survival time, dose: 12.5 mg/kg/injection, schedule: Q04DX003 (ip), vehicle: distilled water + Tween-80 98 % of control | endpoint: mean survival time, dose: 25.0 mg/kg/injection, schedule: Q04DX003 (ip), vehicle: distilled water + Tween-80 101 % of control | endpoint: mean survival time, dose: 50.0 mg/kg/injection, schedule: Q04DX003 (ip), vehicle: distilled water + Tween-80 108 % of control | endpoint: mean survival time, dose: 100.0 mg/kg/injection, schedule: Q04DX003 (ip), vehicle: distilled water + Tween-80 87 % of control

CC(=Nc1ccccc1)C1=C(O)C(Cc2ccc(F)cc2)NC1=O (stereo unspecified)
inactive: endpoint: mean survival time, dose: 12.5 mg/kg/injection, schedule: Q04DX002 (ip), vehicle: saline with Tween-80 103 % of control | endpoint: mean survival time, dose: 25.0 mg/kg/injection, schedule: Q04DX002 (ip), vehicle: saline with Tween-80 100 % of control | [1] 100 % of control

[B-][N+]12CN3CN(CN(C3)C1)C2
inactive: endpoint: mean survival time, dose: 75.0 mg/kg/injection, schedule: Q01DX001 (ip), vehicle: saline 101 % of control

O=CC12C=CC(CC1)C1C(=O)OC(=O)C12 (stereo unspecified)
inactive: endpoint: mean survival time, dose: 100.0 mg/kg/injection, schedule: Q01DX001 (ip), vehicle: saline with Tween-80 104 % of control | [2] 103 % of control | [3] 101 % of control

CC(C)CC(Br)C(=O)NC(CC(C)C)C(=O)O (stereo unspecified)
inactive: [4] 95 % of control | [5] 105 % of control | [6] 94 % of control

O=S(=O)(O)CCCl
inactive: endpoint: mean survival time, dose: 50.0 mg/kg/injection, schedule: Q01DX009 (ip), vehicle: saline with Tween-80 96 % of control | [7] 96 % of control | [8] 96 % of control

Nc1nc2nc[n-]c2c(=O)[nH]1.[NH2-].[NH2-].[NH2-].[NH2-].[NH2-].[Ru+6]
inactive: endpoint: mean survival time, dose: 6.25 mg/kg/injection, schedule: Q04DX003 (ip), vehicle: water 96 % of control | endpoint: mean survival time, dose: 12.5 mg/kg/injection, schedule: Q04DX003 (ip), vehicle: water 96 % of control | endpoint: mean survival time, dose: 25.0 mg/kg/injection, schedule: Q04DX003 (ip), vehicle: water 102 % of control

CNc1ncnc2c1cnn2C1OC(CO)C(O)C1O (stereo unspecified)
inactive: endpoint: mean survival time, dose: 12.5 mg/kg/injection, schedule: Q01DX005 (ip), vehicle: water 93 % of control | endpoint: mean survival time, dose: 25.0 mg/kg/injection, schedule: Q01DX005 (ip), vehicle: water 102 % of control | endpoint: mean survival time, dose: 50.0 mg/kg/injection, schedule: Q01DX005 (ip), vehicle: water 104 % of control

O=c1[nH]c(Cc2ccccc2)c(N=Nc2ccccc2)c(=O)[nH]1
inactive: [2] 90 % of control | [3] 89 % of control

CSc1nc2[nH]c(C)cc2c(=O)[nH]1
inactive: endpoint: median survival time, dose: 50.0 mg/kg/injection, schedule: Q01DX005 (ip), vehicle: saline 102 % of control | endpoint: median survival time, dose: 100.0 mg/kg/injection, schedule: Q01DX005 (ip), vehicle: saline 95 % of control | endpoint: median survival time, dose: 200.0 mg/kg/injection, schedule: Q01DX005 (ip), vehicle: saline 92 % of control

FC(F)(F)c1ccc2c(c1)N(CCCN(CCCl)CCCl)c1ccccc1S2
inactive: endpoint: mean survival time, dose: 18.0 mg/kg/injection, schedule: Q01DX001 (ip), vehicle: saline 100 % of control | endpoint: mean survival time, dose: 28.0 mg/kg/injection, schedule: Q01DX001 (ip), vehicle: saline 111 % of control

Cc1cc(N(C)C)c(C)cc1N=Nc1cc[n+]([O-])cc1
inactive: endpoint: mean survival time, dose: 56.3 mg/kg/injection, schedule: Q04DX002 (ip), vehicle: saline with Tween-80 96 % of control | endpoint: mean survival time, dose: 113.0 mg/kg/injection, schedule: Q04DX002 (ip), vehicle: saline with Tween-80 92 % of control

CNc1c2c(nc3ccccc13)CCCC2
inactive: endpoint: mean survival time, dose: 5.0 mg/kg/injection, schedule: Q04DX003 (ip), vehicle: saline with Tween-80 96 % of control

CN(C)c1cccc(C(C)(C)C)n1
inactive: endpoint: mean survival time, dose: 12.5 mg/kg/injection, schedule: Q04DX002 (ip), vehicle: saline 98 % of control | endpoint: mean survival time, dose: 25.0 mg/kg/injection, schedule: Q04DX002 (ip), vehicle: saline 106 % of control | endpoint: mean survival time, dose: 50.0 mg/kg/injection, schedule: Q04DX002 (ip), vehicle: saline 95 % of control

COc1cc2c(cc1OC)C(Cc1ccccc1NC(=O)c1ccc(C(=O)Nc3ccccc3CC3c4cc(OC)c(OC)cc4CCN3C)cc1)N(C)CC2 (stereo unspecified)
inactive: endpoint: mean survival time, dose: 100.0 mg/kg/injection, schedule: Q01DX001 (ip), vehicle: saline 97 % of control | endpoint: mean survival time, dose: 200.0 mg/kg/injection, schedule: Q01DX001 (ip), vehicle: saline 94 % of control | endpoint: mean survival time, dose: 400.0 mg/kg/injection, schedule: Q01DX001 (ip), vehicle: saline 91 % of control

CC1=NCCCN=C(C)C(C)=NCCCN=C1C.[Ni+2].[O-][Cl+3]([O-])([O-])O
inactive: endpoint: mean survival time, dose: 25.0 mg/kg/injection, schedule: Q04DX003 (ip), vehicle: saline 91 % of control | [1] 96 % of control | endpoint: mean survival time, dose: 50.0 mg/kg/injection, schedule: Q04DX003 (ip), vehicle: saline 94 % of control

O=c1n(-c2ccccc2)c(=O)n(-c2ccccc2)c(=O)n1-c1ccccc1
inactive: endpoint: mean survival time, dose: 100.0 mg/kg/injection, schedule: Q01DX001 (ip), vehicle: Klucel (hydroxypropylcellulose) (HPC) 93 % of control | endpoint: mean survival time, dose: 200.0 mg/kg/injection, schedule: Q01DX001 (ip), vehicle: Klucel (hydroxypropylcellulose) (HPC) 90 % of control | endpoint: mean survival time, dose: 400.0 mg/kg/injection, schedule: Q01DX001 (ip), vehicle: Klucel (hydroxypropylcellulose) (HPC) 101 % of control

COC(=O)C12C=CC=CC3C(C=C1)NC(=O)C32 (stereo unspecified)
inactive: endpoint: median survival time, dose: 25.0 mg/kg/injection, schedule: Q04DX002 (ip), vehicle: saline with Tween-80 122 % of control | endpoint: median survival time, dose: 50.0 mg/kg/injection, schedule: Q04DX002 (ip), vehicle: saline with Tween-80 100 % of control | endpoint: median survival time, dose: 100.0 mg/kg/injection, schedule: Q04DX002 (ip), vehicle: saline with Tween-80 100 % of control | endpoint: median survival time, dose: 200.0 mg/kg/injection, schedule: Q04DX002 (ip), vehicle: saline with Tween-80 111 % of control

COC(=O)C1C2OC(C(Br)C2Br)C1C(=O)OC (stereo unspecified)
inactive: [7] 100 % of control | [4] 97 % of control | [8] 92 % of control | [5] 93 % of control | endpoint: mean survival time, dose: 400.0 mg/kg/injection, schedule: Q01DX009 (ip), vehicle: saline with Tween-80 100 % of control | [6] 92 % of control

CC(C)C1=CCC2C(=C1)CCC1C(C)(C(N)=O)CCCC21C (stereo unspecified)
inactive: [4] 95 % of control | [5] 88 % of control | [6] 90 % of control
